Each block holds one compound with its values, some of them ahead of it.
How the values were obtained:
[1] = system: BT474 cells; assay: Drug screening, BT474 (RealTime-Glo MT); assay type: cell-based, human
Protocol: (§1) The following example describes experiments conducted to calculate IC50 values using a non-linear fit in Graphpad Prism by GraphPad Software Inc.
(§2) Cells grown in 2D were dosed starting after 24 h with either EHT-1864, AZD6482, Maritoclax, ZSTK474, Afatinib, TW-37, ABT-199, ABT-263 and Temsirolimus between 50 nM and up to 20 μM using an Hewlett-Packard (HP) D300 digital dispenser containing up to 0.2% DMSO then treated again 48 h following the first dose and ended after 72 h of treatment. Cells grown in 3D were dosed after 14 days with up to 0.2% DMSO every 48 h for 7 days. Cell viability was assessed by removing media and replacing it with 100 μL of sterile RealTime-Glo MT (Promega) which was diluted 1000× in media warmed to 37° C. After 1 h luminescence was detected using a Tecan microplate reader (Life Sciences) with 1 second integration time. Cell viability was calculated by subtracting background luminescence from all groups; treatment was compared to control wells, which received up to 0.2% DMSO. Data represents 3 independent replicates consisting of different cell passages for each condition to calculate the mean and standard deviation of cell viability.

[2] = system: tumor derived mammary luminal epithelial cells; assay: Drug screening with primary cells; assay type: cell-based; details: human patient tumour luminal B breast cancer cells
Protocol: as §2, with “dosed” for “dosed starting”, “Maritoclax” for “either EHT-1864, AZD6482, Maritoclax, ZSTK474, Afatinib, TW-37, ABT-199, ABT-263 and Temsirolimus”, “10” for “50”, “DMSO. IC50 values were calculated using a non-linear fit in Graphpad Prism by GraphPad Software Inc.” for “DMSO.”

[3] = system: MDA-MB-468 cells; assay: Drug screening, MDA-MB-468 (PrestoBlue); assay type: cell-based; details: Homo sapiens, treated 7 days
Protocol: as §1
Cells were dosed with 0.1, 1, 5, 20 and 50 μM Erlotinib-HCl containing 0.27% DMSO every 48 h for 7 days. Cell viability was assessed by removing media and replacing it with 150 μL of sterile, PrestoBlue which was diluted 10× in media warmed to 37° C. After 2.5 hours fluorescence was detected using a Tecan microplate reader (Life Sciences) by exciting at 570 nm and detected at 590 nm. Cell viability was calculated by subtracting background fluorescence from all groups; treatment was compared to control wells, which received 0.27% DMSO. Data represents 3 independent replicates consisting of different cell passages for each condition to calculate the mean and standard deviation of cell viability.

[4] = system: MDA-MB-468 cells; assay: RGDOA cell adhesion assay; assay type: cell-based, human; details: RGDOA 250-1000 μM conjugated to HA-oxime hydrogels for 1 hour
Protocol: RGDOA Cell Adhesion assay: […] After gelling for 2 h at 37° C., 25 μL of 125, 250, 500, and 1000 μM RGDOA solutions in media described above were added to hydrogels. After treatment with RGDOA solutions for 1 h at 37° C., the media was removed and gels were washed three times with media at 25 μL per well. MDA-MB-468 cells were seeded on the surface of the hydrogels at a density of 3000 cells well^−1 in 25 μL of media and incubated for 30 min. Media was gently removed by pipette and replaced with PBS cooled to 4° C. […] Cells nuclei were stained with Hoechst 33342, 1/250 in PBS, 25 μL well^−1 for 4 h. Images were obtained using an Olympus confocal microscope at 10× magnification with z-stacks of 12 μm step size. Cell number was quantified using spot identification in Imaris 8 software by Bitplane. The fold change in cell number was calculated from control hydrogels containing no RGDOA peptide. A minimum of 3 independent replicates consisting of different cell passages were performed for each condition.

Compound: O=C(c1ccccc1O)c1[nH]c(Cl)c(Cl)c1-n1c(C(=O)c2ccccc2O)cc(Cl)c1Cl [maritoclax]
sensitivity in HA-oxime versus 2D TCPS ([1]; BT474 cells): over tenfold more sensitive
IC50 ([1]; BT474 cells cultured in 2D TCPS): 5.5 µM
IC50 ([1]; BT474 cells cultured in HA-oxime): 0.59 µM
sensitivity in 3D HA-oxime versus 2D TCPS [2]: significantly more sensitive

IC50 ([3]; MDA-MB-468, MDA-MB-468 cultured in 3D (Matrigel, HA-oxime+/−Ln) 21 days): ~4.5 µM
IC50 ([3]; MDA-MB-468, MDA-MB-468 grown on 2D TCPS 21 days): 37.6 µM
Compound: C#Cc1cccc(Nc2ncnc3cc(OCCOC)c(OCCOC)cc23)c1 [erlotinib]

Compound: Cc1cc([C@@H](C)Nc2ccccc2C(=O)O)c2nc(N3CCOCC3)cc(=O)n2c1 [AZD6482]
responsiveness in HA-oxime versus Matrigel or 2D TCPS ([1]; BT474 cells): more responsive

Compound: FC(F)c1nc2ccccc2n1-c1nc(N2CCOCC2)nc(N2CCOCC2)n1 [ZSTK474]
cell response between HA-oxime, Matrigel and 2D TCPS ([1]; BT474 cells): cell response did not always differ between the 3 culture conditions

Compound: O=c1cc(CN2CCOCC2)occ1OCCCCCSc1ccnc2cc(C(F)(F)F)ccc12 [EHT-1864]
responsiveness in HA-oxime versus Matrigel ([1]; BT474 cells): more responsive

Compound: Acetyl-GRGDSPASSKK(OA)G [RGDOA]
number of adherent MDA-MB-468 cells [4]: increase in the number of adherent cells

From patent publication US12605461B2, “Hydrogel compositions and uses thereof” (priority 2019, dated 2026)
